The results in this text go back to patent publication US7351729B2, “JNK inhibitors for use in combination therapy for treating or managing proliferative disorders and cancers” (Signal Pharmaceuticals, LLC, priority 2002, dated 2008).

Assay [1] relates to HCT-116 human colorectal cancer cells. Nature of the assay: HCT-116 tumor growth in SCID mice, JNK inhibitor C with Camptosar. In kind it is in vivo, CB17 SCID mice. Particulars: JNK inhibitor C (15 mg/kg, i.p., b.i.d) + Camptosar (1.5 mg/kg, q4d). As to the method:
The following experiment was performed to determine the effectiveness of combination treatment with JNK inhibitor C (JNK inhibitor C=(3-(4-(2-Piperidin-1-yl-ethoxy)-cyclohexa-1,5-dienyl)-5-(2H-(1,2,4)triazol-3-yl)-1H-indazole)) and Camptosar. The results are illustrated in FIG. 5.
CB17 SCID mice were inoculated subcutaneously with HCT-116 human colorectal cancer cells. On day 8, mice bearing tumors of 100 mm^3 were segregated into groups and administered i.p. with vehicle (citrate buffer), JNK inhibitor C (15 mg/kg), JNK inhibitor C (30 mg/kg), JNK inhibitor C (15 mg/kg)+Camptosar (1.5 mg/kg), Camptosar (1.5 mg/kg) or Camptosar (10 mg/kg). The tumors were measured twice a week and volumes calculated. The dosing regimen for the compound JNK inhibitor C was b.i.d and for Camptosar was q4d. The arrows indicate the dosing days of JNK inhibitor C and Camptosar.

Assay [2] relates to MiaPaCa cells. Nature of the assay: MiaPaCa cell apoptosis, DiOC6 staining and flow cytometry. In kind it is cell-based. As to conditions: taxol for first 7 hours, washed out, then JNK inhibitor A; read at 48 hours; compared to taxol alone. As to the method:
The following experiment was performed to determine the effectiveness of combination treatment with JNK inhibitor A and a chemodrug on apoptosis. The results are illustrated in FIG. 3.
MiaPaCa cells (100,000/well) were plated in 6 well plates. Following overnight incubation, vehicle or taxol was added alone for the first 7 hours, washed out, and then JNK inhibitor A or vehicle were added for the remainder of the experiment. After 48 hours, each sample was trypsinized, stained with DiOC6 and analyzed by flow cytometry on a Coulter Epics flow cytometer using FlowJo software.

Assay [3] relates to Lewis lung carcinoma. As to the kind of experiment: LLC tumor growth in mice, JNK inhibitor A with cyclophosphamide. The class given is in vivo, C57BL/6 mice. Particulars: JNK inhibitor A in combination with cyclophosphamide; p=0.05; N=10. How it is done:
The following experiment was performed to determine the effectiveness of combination treatment with JNK inhibitor A and cyclophosphamide. The results are illustrated in FIG. 4.
Tumor cells were cultured under normal conditions, harvested with trypsin, washed with PBS then resuspended, 1×10^7 cells/ml in Matrigel (Collaborative). C57BL/6 mice (female, 18-20 g, Charles River) were lightly anesthetized using Isofluorane then inoculated, subcutaneously, under the right flank with 0.1 ml Matrigel containing 1×10^6 tumor cells. Mice were randomized into treatment groups immediately after cell inoculation. After 3 days tumor growth treatment began. Mice were administered vehicle alone (DMSO), cyclophosphamide (CTX), JNK inhibitor A or CTX in combination with JNK inhibitor A. Tumor volumes were determined by caliper measurement. Tumor volume was calculated by the formula: mm^3=(L×W2)/2. Values are mean±sem, N=10.

Assay [4] has as its system Lewis Lung Carcinoma (LLC) cells. Nature of the assay: Lewis Lung Carcinoma (LLC) proliferation in vitro, Alamar Blue fluorescence. The class given is cell-based. As to conditions: combination with a chemodrug (doxorubican, 5-FU, cisplatin or paclitaxel), 48 hours after treatment, relative to JNK inhibitor or chemodrug alone. How it is done:
This experiment was performed in vitro to determine the effect on Lewis Lung Carcinoma (LLC) proliferation of combination treatment with JNK inhibitor A and JNK inhibitor B (JNK inhibitor A=((2H-Dibenzo(cd,g)indazol-6-one)); JNK inhibitor B=(3-(4-fluoro-phenyl)-5-(2H-(1,2,4-triazol-3-yl)-1H-indazole)) and anti-cancer agents. The results are illustrated in FIGS. 1A and 1B.
LLC cells were grown in DMEM with 10% FBS. Cells were subsequently treated on the second day with either DMSO,JNK inhibitor A (3 μM, 10 μM or 30 μM), JNK inhibitor B (1 μM, 3 μM, or 10 μM), or a chemodrug (i.e., doxorubican, […] (5-FU), cisplatin or paclitaxel) (concentrations ranging from 0.001 μM to 10 μM) or a combination of JNK inhibitor A or JNK inhibitor B with a chemodrug. Cell proliferation was measured at 48 hours after treatment by Alamar Blue fluorescence.

The test system of assay [5] is Lewis Lung Carcinoma (LLC) tumors. Nature of the assay: LLC tumor growth in mice, JNK inhibitor B with cyclophosphamide. In kind it is in vivo, C57BL/6 mice. Particulars: CTX (50 mg/kg, ip, q3d) in combination with JNK inhibitor B; 17 days; 10/group. How it is done: This experiment was performed to determine if JNK inhibitors will enhance the antitumor effects of cyclophosphamide (CTX) in combination treatment. Results are illustrated in FIG. 2.
Lewis Lung Carcinoma (LLC) tumors were injected into C57BL/6 mice (50 mice, 10/group), 1×10^6 cells in 0.1 ml Matrigel. Tumors were treated the day after inoculation by administration of vehicle alone (0.5% CMC/0.25% Tween 80), cyclophosphamide (CTX, 50 mg/kg, ip, q3d), SPC2 (75 mg/kg, ip, b.i.d.) or CTX in combination with JNK inhibitor B. Tumor volume was recorded over a period of 17 days. Tumor volume was calculated by the formula: mm^3=(L×W^2)/2. In the CTX/JNK inhibitor B combination group, 7/10 animals had no measurable tumors at the end of the study.

Molecules are shown by their SMILES.

For `C1=CC(OCCN2CCCCC2)CC=C1c1n[nH]c2ccc(-c3ncn[nH]3)cc12` (stereo not drawn) [JNK inhibitor C, 3-(4-(2-Piperidin-1-yl-ethoxy)-cyclohexa-1,5-dienyl)-5-(2H-(1,2,4)triazol-3-yl)-1H-indazole], the “tumor growth versus either treatment alone” value in assay [1] is “significantly slower”.

Consider `O=C1c2ccccc2-c2n[nH]c3cccc1c23` [JNK inhibitor A, 2H-Dibenzo(cd,g) indazol-6-one], for which the “chemotherapeutic induction of apoptosis” value in assay [2] is on record as “Potentiates Chemotherapeutic Induction of Apoptosis”. Moreover, the “tumor inhibition (tumor volume) versus cyclophosphamide alone” value in assay [3] is reported as “significantly less”. The “killing of cells (cell proliferation)” value in assay [4] is “increased killing of cells”.

For `Fc1ccc(-c2n[nH]c3ccc(-c4ncn[nH]4)cc23)cc1` [JNK inhibitor B, 3-(4-fluoro-phenyl)-5-(2H-(1,2,4)triazol-3-yl)-1H-indazole], in assay [5], the “animals with no measurable tumors at the end of the study” value is given as 7/10. For the same compound, in assay [4], the “killing of cells (cell proliferation)” value is recorded as “increased killing of cells”.
